Reference: patent US12453700B2, “Nano-particles of menaquinone-9 and methods of treatment” (Epizon, Inc., priority 2024, dated 2025)

Test: Dissolution testing of MK-9 API and nanosuspension in Fed State Simulated Intestinal Fluid (FeSSIF)
Type: physicochemical
Details: for % Dissolution (Avg of n = 3): FeSSIF pH 5, 37° C., 0.01 mg/mL drug load
Procedure: MK-9 (menaquinone-9, API) is suspended in an aqueous vehicle containing wetting agent sodium deoxycholate. The API concentration is 4% and the wetting agent concentration was 0.4% w/w. The API particles are milled to a particle size of 155 nm using zirconium milling beads and high shear Beadbeater mixing. The dissolution of the nanosuspension is tested at a concentration of 0.01 mg/mL, in triplicate, in pH 5 Fed State Simulated Intestinal Fluid (FeSSIF).
2. Fill three (3) vessels with 500 mL of FeSSIF media and heat to 37° C.
3. Set up the following dissolution conditions:
4. Vortex suspension x for approximately one minute so that it is uniform. Weigh three (3) aliquots of 0.15 g of the 4% nanosuspension into a tared syringe to give a target 100% dissolution concentration of 0.01 mg/mL. Record weight.
5. Add weighed suspension directly to each vessel.
7. After five minutes, manually pull up 3 mL from each dissolution vessel in a syringe.
8. Attach a 0.2 μm filter to the syringe.
9. Transfer 2 mL of the dissolution sample back into the vessel.
10. Transfer the final 1 mL of sample to an amber HPLC vial and crimp seal.
12. After the 60-minute time-point, mix each vessel for 5 minutes with a high shear mixer.
13. Repeat Step #8-11 and label this sample as ‘infinity’.
14. Run samples on HPLC 10 minutes HPLC method with replicate HPLC standard solutions.
MK-9 (menaquinone-9, API) is suspended in an aqueous vehicle containing wetting agent, sodium deoxycholate. The API concentration is 4% and the wetting agent concentration was 0.4% w/w. The API particles are milled to a particle size of 155 nm by use of zirconium milling beads and high shear Beadbeater mixing. The dissolution of the nanosuspension is tested at a concentration of 0.01 mg/mL, in triplicate, in pH 5 FeSSIF. […] The nano-milling process is scaled up and the suspended nano-particles are removed from the suspension vehicle, dry and formulate into a fast dissolving tablet, and tested.

% Dissolution (Avg of n = 3) (timepoint 0 minute): 0%
% Dissolution (Avg of n = 3) (timepoint 10 minute): 96%
% Dissolution (Avg of n = 3) (timepoint 10 minute, listed as MK-9 API): about 20%
% Dissolution (Avg of n = 3) (timepoint 15 minute): 97%
% Dissolution (Avg of n = 3) (timepoint 30 minute): 97%
% Dissolution (Avg of n = 3) (timepoint 45 minute): 98%
% Dissolution (Avg of n = 3) (timepoint 60 minute): 96%
% Dissolution (Avg of n = 3) (timepoint Infinity (after 5 minutes high shear mixing)): 97%
% Dissolution (dissolution profile) (FeSSIF, at about 120 mins): about 20%
SMILES: CC(C)=CCC/C(C)=C/CC/C(C)=C/CC/C(C)=C/CC/C(C)=C/CC/C(C)=C/CC/C(C)=C/CC/C(C)=C/CC/C(C)=C/CC1=C(C)C(=O)c2ccccc2C1=O [API, menaquinone-9]
